Assay results taken from patent publication US10100064B2, “Purine inhibitors of human phosphatidylinositol 3-kinase delta” (Merck Sharp & Dohme Corp., priority 2014, dated 2018).

Columns and labels:
[1] = molecular target: T1, PI3Kdelta (Homo sapiens, UniProt O00329); assay: HTRF PI3K biochemical assay, delta isoform; conditions: 0.3 nM enzyme, 100 uM ATP, 5 uM PIP2, form screened (Neutral or TFA salt) given per compound
T1 construct: purchased Upstate; Millipore 14-604
Excerpt: (§1) HTRF PI3K Biochemical Assay to Measure Intrinsic Potency of Compound Inhibitors
(§2) The PI3-Kinase biochemical assays were developed to measure the intrinsic potency and compound dependent inhibition of the alpha, beta, delta, and gamma PI3K isoform enzymes. This assay was developed and further optimized from a kit produced by Upstate (Millipore catalog #33-047) and has been configured for HTS and SAR screening. Briefly, this procedure exploits the exquisite specificity and high affinity binding of […] phosphatidyl(3,4,5)triphosphate (PIP3) to the GRP1 pleckstrin homology (PH) domain to generate the signal. In the absence of PIP3, an HTRF (Homogeneous Time-Resolved Fluorescence energy transfer) complex is formed consisting of europium (Eu)-labeled anti-GST, GSTtagged GRP1-PH domain, biotin-PIP3 and streptavidin conjugated APC. The native PIP3 produced by PI3-Kinase activity disrupts in a competitive manner the biotin-PIP3 from the PH domain, resulting in the loss of energy transfer (HTRF complex) and a decrease in the signal. The format of this assay is the same for all 4 isoforms of PI3K; the differences lie in the concentration of enzyme used to achieve robust assay window. The alpha, beta, and delta assays are run at 0.5, 1, and 0.3 nM enzymes and the gamma assay is run at 5 nM enzyme. The ATP concentration is 100 uM in the alpha, beta, and delta assays and 50 uM ATP in the gamma assay. All reactions are run at 5 uM PIP2.
(§3) Compounds are serially diluted (3-fold in 100% DMSO) across a 384-well polypropylene source plated from column 3 to column 12 and column 13 to column 22, to yield 10 concentration dose response for each test compound. Columns 1, 2, 23 and 24 contain either only DMSO or pharmacological known control inhibitor. Once titrations are made, 2.5 nL of the compounds on 384 well plates are reformatted and transferred by acoustic dispense in quadruplicates to a 1536 assay plate (Greiner) to assay across all four PI3K isoform enzymes.
(§4) The PI3-Kinase biochemical assay was optimized using the HTRF kit provided by Upstate (Millipore). The assay kit contains six reagents: 1) 4× Reaction Buffer; 2) native PIP2 (substrate); 3) Stop (EDTA); 4) Detection Mix A (Streptavidin-APC); 5) Detection Mix B (Eu-labeled Anti-GST plus GST-tagged PH-domain); 6) Detection Mix C. In addition, the following items were obtained or purchased; PI3Kinase (alpha 14-602, beta 14-603, gamma 14-558 and delta 14-604 from Upstate; Millipore), dithiothreitol (Sigma, D-5545), Adenosine-5′ triphosphate (InVitrogen, Cat#AS001A), native PIP3 (PI(3,4,5)P3, diC8, H^+, CELLSIGNALS, INC. Cat #907) DMSO (Sigma, 472301).
(§5) PI3Kinase Reaction Buffer is prepared by dilution the stock 1:4 with de-ionized water. DTT, PIP2 and Biotin-PIP3 were added to 1536 assay plate at a final concentration of 5 mM, […] 25 nM on the day of use. Enzyme addition and compound pre-incubation are initiated by the addition of 1.25 ul of PI3K (at twice its final concentration) in the 1× reaction buffer to all wells using a BioRaptor. Plates are incubated at room temperature for 15 minutes. Reactions are initiated by addition of 1.25 ul of 2× substrate solution (PIP2 and ATP in 1× reaction buffer) using BioRaptor. Plates are incubated in humidified chamber at room temperature for one hour. Reactions are quenched by addition of 0.625 uL of stop solution to all wells using the BioRaptor. The quenched reactions are then processed to detect product formation by adding 0.625 uL of Detection Solution to all wells using the BioRaptor (Detection mix C, Detection Mix A, and Detection Mix B combined together in an 18:1:1 ratio prepared 2 hours prior to use). Following a one hour incubation in the dark, the HTRF signal is measured on the Envision plate reader set for 330 nm excitation and dual emission detection at […]. […]

[2] = molecular target: T2, PI3Kalpha (Homo sapiens, UniProt P42336); assay: HTRF PI3K biochemical assay, alpha isoform (selectivity versus delta); conditions: relative ratio PI3K-alpha IC50 value / PI3K-delta IC50 value
T2 construct: purchased Upstate; Millipore 14-602
Excerpt: as §1, §2, §3, §4, §5

T2 sequence (P42336 whole entry, canonical isoform): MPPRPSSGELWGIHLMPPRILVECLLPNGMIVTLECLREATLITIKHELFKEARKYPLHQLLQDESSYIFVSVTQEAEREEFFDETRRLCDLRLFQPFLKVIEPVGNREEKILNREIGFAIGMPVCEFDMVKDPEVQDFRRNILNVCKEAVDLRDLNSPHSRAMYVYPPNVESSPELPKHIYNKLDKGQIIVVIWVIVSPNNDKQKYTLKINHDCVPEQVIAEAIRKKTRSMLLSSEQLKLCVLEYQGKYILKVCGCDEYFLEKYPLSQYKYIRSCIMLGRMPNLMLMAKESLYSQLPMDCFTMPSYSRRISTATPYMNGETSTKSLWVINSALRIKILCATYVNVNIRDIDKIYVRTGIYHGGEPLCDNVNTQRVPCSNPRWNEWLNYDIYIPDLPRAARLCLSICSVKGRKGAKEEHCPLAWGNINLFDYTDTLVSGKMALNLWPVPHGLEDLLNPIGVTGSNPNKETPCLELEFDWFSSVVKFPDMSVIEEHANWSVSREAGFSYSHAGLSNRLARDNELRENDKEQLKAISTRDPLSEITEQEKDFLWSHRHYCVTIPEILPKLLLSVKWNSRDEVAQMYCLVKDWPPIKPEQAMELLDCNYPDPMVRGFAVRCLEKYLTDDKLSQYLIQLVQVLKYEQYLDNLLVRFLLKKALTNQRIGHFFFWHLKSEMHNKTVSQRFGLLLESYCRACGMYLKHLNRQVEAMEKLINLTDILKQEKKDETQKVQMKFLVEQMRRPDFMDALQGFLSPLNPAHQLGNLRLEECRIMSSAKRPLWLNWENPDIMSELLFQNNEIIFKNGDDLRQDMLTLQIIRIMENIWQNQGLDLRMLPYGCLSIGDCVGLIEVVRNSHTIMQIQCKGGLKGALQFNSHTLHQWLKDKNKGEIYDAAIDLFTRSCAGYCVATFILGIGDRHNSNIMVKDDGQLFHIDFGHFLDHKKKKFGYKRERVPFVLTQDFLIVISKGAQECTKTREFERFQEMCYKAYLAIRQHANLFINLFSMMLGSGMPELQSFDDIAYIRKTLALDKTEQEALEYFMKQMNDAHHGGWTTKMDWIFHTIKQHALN
T2 sequence (P27986 whole entry partner, canonical isoform): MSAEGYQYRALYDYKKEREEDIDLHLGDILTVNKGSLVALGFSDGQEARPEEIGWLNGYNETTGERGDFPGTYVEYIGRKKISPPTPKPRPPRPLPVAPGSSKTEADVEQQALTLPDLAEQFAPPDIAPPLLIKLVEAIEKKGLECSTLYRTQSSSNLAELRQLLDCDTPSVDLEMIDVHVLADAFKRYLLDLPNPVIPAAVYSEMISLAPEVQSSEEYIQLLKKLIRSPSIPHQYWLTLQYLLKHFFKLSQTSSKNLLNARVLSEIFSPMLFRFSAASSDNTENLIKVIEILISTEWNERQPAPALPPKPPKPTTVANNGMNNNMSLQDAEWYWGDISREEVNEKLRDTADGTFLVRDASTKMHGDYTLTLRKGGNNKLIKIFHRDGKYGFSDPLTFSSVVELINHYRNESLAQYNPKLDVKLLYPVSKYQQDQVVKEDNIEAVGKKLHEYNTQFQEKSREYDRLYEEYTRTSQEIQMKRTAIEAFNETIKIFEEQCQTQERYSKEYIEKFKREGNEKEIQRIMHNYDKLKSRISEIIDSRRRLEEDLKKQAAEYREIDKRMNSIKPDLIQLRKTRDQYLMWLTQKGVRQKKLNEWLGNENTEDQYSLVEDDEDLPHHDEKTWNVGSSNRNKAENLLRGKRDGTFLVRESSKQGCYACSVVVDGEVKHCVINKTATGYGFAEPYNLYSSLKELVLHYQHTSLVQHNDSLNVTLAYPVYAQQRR
T1 sequence (O00329 whole entry, canonical isoform): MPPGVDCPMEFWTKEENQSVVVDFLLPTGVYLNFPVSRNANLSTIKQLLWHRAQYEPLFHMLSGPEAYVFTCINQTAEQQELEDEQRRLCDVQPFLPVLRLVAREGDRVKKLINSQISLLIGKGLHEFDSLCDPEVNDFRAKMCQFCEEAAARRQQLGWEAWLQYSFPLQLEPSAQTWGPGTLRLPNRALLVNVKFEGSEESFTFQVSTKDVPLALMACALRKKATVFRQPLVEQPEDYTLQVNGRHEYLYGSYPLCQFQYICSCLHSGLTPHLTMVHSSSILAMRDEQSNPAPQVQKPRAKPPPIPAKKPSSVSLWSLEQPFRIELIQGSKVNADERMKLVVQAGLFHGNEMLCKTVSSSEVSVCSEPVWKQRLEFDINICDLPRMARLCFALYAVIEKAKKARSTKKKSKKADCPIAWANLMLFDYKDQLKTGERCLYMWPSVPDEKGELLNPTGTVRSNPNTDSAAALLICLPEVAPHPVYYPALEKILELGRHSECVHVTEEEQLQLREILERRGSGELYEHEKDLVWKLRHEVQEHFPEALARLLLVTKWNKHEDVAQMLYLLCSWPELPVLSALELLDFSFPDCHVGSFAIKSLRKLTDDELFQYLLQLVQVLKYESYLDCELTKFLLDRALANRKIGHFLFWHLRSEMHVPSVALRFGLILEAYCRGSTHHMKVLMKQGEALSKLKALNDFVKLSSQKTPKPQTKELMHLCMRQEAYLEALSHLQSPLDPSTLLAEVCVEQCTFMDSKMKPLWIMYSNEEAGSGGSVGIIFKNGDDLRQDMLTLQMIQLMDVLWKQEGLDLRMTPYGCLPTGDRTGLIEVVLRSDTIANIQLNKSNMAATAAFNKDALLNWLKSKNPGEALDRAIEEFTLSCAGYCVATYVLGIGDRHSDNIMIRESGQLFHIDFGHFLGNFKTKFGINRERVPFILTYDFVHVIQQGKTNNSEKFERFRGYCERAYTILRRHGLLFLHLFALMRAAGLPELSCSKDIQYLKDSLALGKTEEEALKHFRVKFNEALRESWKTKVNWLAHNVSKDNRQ
T1 sequence (P27986 whole entry partner, canonical isoform): as the sequence (P27986 whole entry partner, canonical isoform) above

Structure (SMILES) | IC50 [1] | Selectivity versus PI3Kalpha [2]
CCn1c(-c2cnc(C)nc2)nc2c(NC3CCc4nnc(C5CC5)n4C3)ncnc21 (single isomer, unassigned) [Compound 1-2, (S or R)-N-(3-cyclopropyl-5,6,7,8-tetrahydro[1,2,4]triazolo[4,3-a]pyridin-6-yl)-9-ethyl-8-(2-methylpyrimidin-5-yl)-9H-purin-6-amine] | 65 nM | >10
CCn1c(-c2cnc(C)nc2)nc2c(NC3CCc4nnc(-c5ccccc5)n4C3)ncnc21 (single isomer, unassigned) [Compound 1-3, (S or R)-9-ethyl-8-(2-methylpyrimidin-5-yl)-N-[3-phenyl-5,6,7,8-tetrahydro[1,2,4]triazolo[4,3-a]pyridin-6-yl]-9H-purin-6-amine] | 5.9 nM | >10
CCn1c(-c2cnc(C)nc2)nc2c(NC3CCc4nnc(C(C)C)n4C3)ncnc21 (single isomer, unassigned) [Compound 1-4, (S or R)-9-ethyl-N-[3-(1-methylethyl)-5,6,7.8-tetrahydro[1,2,4]triazolo[4,3-a]pyridin-6-yl]-8-(2-methylpyrimidin-5-yl)-9H-purin-6-amine] | 46 nM | >10
CCn1c(-c2cnc(C)nc2)nc2c(NC3CCc4nnc(C(C)C)n4C3)ncnc21 (single isomer, unassigned) [Compound 1-5, (S or R)-9-ethyl-N-[3-(1-methylethyl)-5,6,7,8-tetrahydro[1,2,4]triazolo[4,3-a]pyridin-6-yl]-8-(2-methylpyrimidin-5-yl)-9H-purin-6-amine] | 1.1 nM | >10
CCc1nnc2n1CC(Nc1ncnc3c1nc(-c1cnc(C)nc1)n3CC)CC2 (single isomer, unassigned) [Compound 1-6, (S or R)-9-ethyl-N-[3-ethyl-5,6,7,8-tetrahydro[1,2,4]triazolo[4,3-a]pyridin-6-yl]-8-(2-methylpyrimidin-5-yl)-9H-purin-6-amine] | 2 nM | >10
CCc1nnc2n1CC(Nc1ncnc3c1nc(-c1cnc(C)nc1)n3CC)CC2 (single isomer, unassigned) [Compound 1-7, (S or R)-9-ethyl-N-[3-ethyl-5,6,7,8-tctrahydro[1,2,4]triazolo[4,3-a]pyridin-6-yl]-8-(2-methylpyrimidin-5-yl)-9H-purin-6-amine] | 13 nM | >10
CCn1c(C(F)F)nc2c(NC3CCc4nnc(C(C)C)n4C3)ncnc21 (single isomer, unassigned) [Compound 1-8, (S or R)-8-(difluoromethyl)-9-ethyl-N-[3-(1-methylethyl)-5,6,7,8-tetrahydro[1,2,4]triazolo[4,3-a]pyridin-6-yl]-9H-purin-6-amine] | 460 nM | >10
CCn1c(C(F)F)nc2c(NC3CCc4nnc(C(C)C)n4C3)ncnc21 (single isomer, unassigned) [Compound 1-9, (S or R)-8-(difluoromethyl)-9-ethyl-N-[3-(1-methylethyl)-5,6,7,8-tetrahydro[1,2,4]triazolo[4,3-a]pyridin-6-yl]-9H-purin-6-amine] | 16 nM | >10
CCn1c(-c2ccc(C(F)(F)F)nc2)nc2c(NC3CCc4nnc(C(C)C)n4C3)ncnc21 (single isomer, unassigned) [Compound 1-18, (S or R)-9-ethyl-N-[3-(1-methylethyl)-5,6,7,8-tetrahydro[1,2,4]triazolo[4,3-a]pyridin-6-yl]-8-[6-(trifluoromethyl)pyridin-3-yl]-9H-purin-6-amine] | < 1 nM | >10
CCn1c(-c2ccc(C(F)(F)F)nc2)nc2c(NC3CCc4nnc(C(C)C)n4C3)ncnc21 (single isomer, unassigned) [Compound 1-19, (S or R)-9-ethyl-N-[3-(1-methylethyl)-5,6,7,8-tetrahydro[1,2,4]triazolo[4,3-a]pyridin-6-yl]-8-(6-(trifluoromethyl)pyridin-3-yl]-9H-purin-6-amine] | 31 nM | >10
CCn1c(-c2ccc(C(F)(F)F)cc2)nc2c(NC3CCc4nnc(C(C)C)n4C3)ncnc21 (single isomer, unassigned) [Compound 1-20, (S or R)-9-ethyl-N-[(6S)-3-(1-methylethyl)-5,6,7,8-tetrahydro[1,2,4]triazolo[4,3-a]pyridin-6-yl]-8-[4-(trifluoromethyl)phenyl]-9H-purin-6-amine] | < 1 nM | >10
CCn1c(-c2cnc(OC)c(F)c2)nc2c(NC3CCc4nnc(C(C)C)n4C3)ncnc21 (single isomer, unassigned) [Compound 1-21, (S or R)-9-ethyl-8-(5-fluoro-6-methoxypyridin-3-yl)-N-[3-(1-methylethyl)-5,6,7,8-tetrahydro[1,2,4]triazolo[4,3-a]pyridin-6-yl]-9H-purin-6-amine] | < 1 nM | >10
CCn1c(-c2cnc(OC)c(Cl)c2)nc2c(NC3CCc4nnc(C(C)C)n4C3)ncnc21 (single isomer, unassigned) [Compound 1-22, (S or R)-8-(5-chloro-6-methoxypyridin-3-yl)-9-ethyl-N-[3-(1-methylethyl)-5,6,7,8-tetrahydro[1,2,4]triazolo[4,3-a]pyridin-6-yl]-9H-purin-6-amine] | 221 nM | >10

Second part, the molecule after the results:

IC50 [1] | Selectivity versus PI3Kalpha [2] | Structure (SMILES)
< 1 nM | >10 | CCn1c(-c2cnn(-c3ccccc3)c2)nc2c(NC3CCc4nnc(C(C)C)n4C3)ncnc21 (single isomer, unassigned) [Compound 1-23, (S or R)-9-ethyl-N-[3-(1-mtthylethyl)-5,6,7,8-tetrahydro[1,2,4]triazolo[4,3-a]pyridin-6-yl]-8-(1-phenyl-1H-pyrazol-4-yl)-9H-purin-6-amine]
3.5 nM | >10 | CCn1c(-c2ccc(C(F)F)cc2)nc2c(NC3CCc4nnc(C(C)C)n4C3)ncnc21 (single isomer, unassigned) [Compound 1-24, 8-[4-(difluoromethyl)phenyl]-9-ethyl-N-[(6(S or R))-3-(1-methylethyl)-5,6,7,8-tetrahydro[1,2,4]triazolo[4,3-a]pyridin-6-yl]-9H-purin-6-amine]
24 nM | >10 | CCn1c(-n2cnc(C(F)(F)F)c2)nc2c(NC3CCc4nnc(C(C)C)n4C3)ncnc21 (single isomer, unassigned) [Compound 1-25, 9-ethyl-N-[(6(S or R))-3-(1-methylethyl)-5,6,7,8-tetrahydro[1,2,4]triazolo[4,3-a]pyridin-6-yl]-8-[4-(trifluoromethyl)-1H-imidazol-1-yl]-9H-purin-6-amine]
12 nM | >10 | CCn1c(I)nc2c(NC3CCc4nnc(C5CC5)n4C3)ncnc21 (single isomer, unassigned) [Compound 1-26, (S or R)-N-[3-cyclopropyl-5,6,7,8-tetrahydro[1,2,4]triazolo[4,3-a]pyridin-6-yl]-9-ethyl-8-iodo-9H-purin-6-amine]
151 nM | >10 | CCn1c(I)nc2c(NC3CCc4nnc(C5CC5)n4C3)ncnc21 (single isomer, unassigned) [Compound 1-27, (S or R)-N-[3-cyclopropyl-5,6,7,8-tetrahydro[1,2,4]triazolo[4,3-a]pyridin-6-yl]-9-ethyl-8-iodo-9H-purin-6-amine]
